Source: the NIST ThermoML archive (doi:10.1016/j.jct.2015.12.031)
Numbers after ± are expanded uncertainties.

Test: mn = molality of the nth substance listed, in mol/kg
Conditions: 86.5 kPa, Liquid; for speed of sound: Frequency=3 MHz, Sing-around technique in a fixed-path interferometer; for mass density: Vibrating tube method

Compound: CCCCCCn1cc[n+](C)c1.[Br-] [3-hexyl-1-methyl-1H-imidazolium bromide] + c1ccsc1
- speed of sound (288.15 K, m2 = 0): 1639.4 ± 3.2 m/s
- speed of sound (288.15 K, m2 = 0.0186): 1638.2 ± 3.2 m/s
- speed of sound (288.15 K, m2 = 0.0221): 1638 ± 3.2 m/s
- speed of sound (288.15 K, m2 = 0.0358): 1637.2 ± 3.2 m/s
- speed of sound (288.15 K, m2 = 0.0433): 1636.8 ± 3.2 m/s
- speed of sound (288.15 K, m2 = 0.0632): 1635.7 ± 3.2 m/s
- speed of sound (288.15 K, m2 = 0.0727): 1635.2 ± 3.2 m/s
- speed of sound (288.15 K, m2 = 0.0952): 1634 ± 3.2 m/s
- speed of sound (288.15 K, m2 = 0.1142): 1633 ± 3.2 m/s
- speed of sound (288.15 K, m2 = 0.137): 1631.7 ± 3.2 m/s
- speed of sound (288.15 K, m2 = 0.1603): 1630.7 ± 3.2 m/s
- speed of sound (288.15 K, m2 = 0.1869): 1629.8 ± 3.2 m/s
- mass density (288.15 K, m2 = 0): 1231.02 ± 7.5 kg/m3
- mass density (288.15 K, m2 = 0.0186): 1230.37 ± 7.5 kg/m3
- mass density (288.15 K, m2 = 0.0221): 1230.25 ± 7.5 kg/m3
- mass density (288.15 K, m2 = 0.0358): 1229.81 ± 7.5 kg/m3
- mass density (288.15 K, m2 = 0.0433): 1229.58 ± 7.5 kg/m3
- mass density (288.15 K, m2 = 0.0632): 1228.97 ± 7.5 kg/m3
- mass density (288.15 K, m2 = 0.0727): 1228.69 ± 7.5 kg/m3
- mass density (288.15 K, m2 = 0.0952): 1228.1 ± 7.5 kg/m3
- mass density (288.15 K, m2 = 0.1142): 1227.69 ± 7.5 kg/m3
- mass density (288.15 K, m2 = 0.137): 1227.21 ± 7.5 kg/m3
- mass density (288.15 K, m2 = 0.1603): 1226.74 ± 7.5 kg/m3
- mass density (288.15 K, m2 = 0.1869): 1226.31 ± 7.5 kg/m3
- speed of sound (293.15 K, m2 = 0): 1610.4 ± 3.2 m/s
- speed of sound (293.15 K, m2 = 0.0186): 1609.5 ± 3.2 m/s
- speed of sound (293.15 K, m2 = 0.0221): 1609.3 ± 3.2 m/s
- speed of sound (293.15 K, m2 = 0.0358): 1608.7 ± 3.2 m/s
- speed of sound (293.15 K, m2 = 0.0433): 1608.4 ± 3.2 m/s
- speed of sound (293.15 K, m2 = 0.0632): 1607.5 ± 3.2 m/s
- speed of sound (293.15 K, m2 = 0.0727): 1607.1 ± 3.2 m/s
- speed of sound (293.15 K, m2 = 0.0952): 1606.1 ± 3.2 m/s
- speed of sound (293.15 K, m2 = 0.1142): 1605.5 ± 3.2 m/s
- speed of sound (293.15 K, m2 = 0.137): 1604.5 ± 3.2 m/s
- speed of sound (293.15 K, m2 = 0.1603): 1603.7 ± 3.2 m/s
- speed of sound (293.15 K, m2 = 0.1869): 1602.9 ± 3.2 m/s
- mass density (293.15 K, m2 = 0): 1227.43 ± 7.5 kg/m3
- mass density (293.15 K, m2 = 0.0186): 1226.77 ± 7.5 kg/m3
- mass density (293.15 K, m2 = 0.0221): 1226.65 ± 7.5 kg/m3
- mass density (293.15 K, m2 = 0.0358): 1226.19 ± 7.5 kg/m3
- mass density (293.15 K, m2 = 0.0433): 1225.96 ± 7.5 kg/m3
- mass density (293.15 K, m2 = 0.0632): 1225.37 ± 7.5 kg/m3
- mass density (293.15 K, m2 = 0.0727): 1225.11 ± 7.5 kg/m3
- mass density (293.15 K, m2 = 0.0952): 1224.52 ± 7.5 kg/m3
- mass density (293.15 K, m2 = 0.1142): 1224.09 ± 7.5 kg/m3
- mass density (293.15 K, m2 = 0.137): 1223.63 ± 7.5 kg/m3
- mass density (293.15 K, m2 = 0.1603): 1223.19 ± 7.5 kg/m3
- mass density (293.15 K, m2 = 0.1869): 1222.77 ± 7.5 kg/m3
- speed of sound (298.15 K, m2 = 0): 1587.1 ± 3.2 m/s
- speed of sound (298.15 K, m2 = 0.0186): 1586.3 ± 3.2 m/s
- speed of sound (298.15 K, m2 = 0.0221): 1586.2 ± 3.2 m/s
- speed of sound (298.15 K, m2 = 0.0358): 1585.7 ± 3.2 m/s
- speed of sound (298.15 K, m2 = 0.0433): 1585.4 ± 3.2 m/s
- speed of sound (298.15 K, m2 = 0.0632): 1584.6 ± 3.2 m/s
- speed of sound (298.15 K, m2 = 0.0727): 1584.3 ± 3.2 m/s
- speed of sound (298.15 K, m2 = 0.0952): 1583.6 ± 3.2 m/s
- speed of sound (298.15 K, m2 = 0.1142): 1582.9 ± 3.2 m/s
- speed of sound (298.15 K, m2 = 0.137): 1582.2 ± 3.2 m/s
- speed of sound (298.15 K, m2 = 0.1603): 1581.7 ± 3.2 m/s
- speed of sound (298.15 K, m2 = 0.1869): 1581 ± 3.2 m/s
- mass density (298.15 K, m2 = 0): 1223.74 ± 7.5 kg/m3
- mass density (298.15 K, m2 = 0.0186): 1223.07 ± 7.5 kg/m3
- mass density (298.15 K, m2 = 0.0221): 1222.95 ± 7.5 kg/m3
- mass density (298.15 K, m2 = 0.0358): 1222.49 ± 7.5 kg/m3
- mass density (298.15 K, m2 = 0.0433): 1222.25 ± 7.5 kg/m3
- mass density (298.15 K, m2 = 0.0632): 1221.65 ± 7.5 kg/m3
- mass density (298.15 K, m2 = 0.0727): 1221.38 ± 7.5 kg/m3
- mass density (298.15 K, m2 = 0.0952): 1220.8 ± 7.5 kg/m3
- mass density (298.15 K, m2 = 0.1142): 1220.33 ± 7.5 kg/m3
- mass density (298.15 K, m2 = 0.137): 1219.88 ± 7.5 kg/m3
- mass density (298.15 K, m2 = 0.1603): 1219.44 ± 7.5 kg/m3
- mass density (298.15 K, m2 = 0.1869): 1219 ± 7.5 kg/m3
